2 compounds from patent US8080252B2, “Compounds and methods of modulating angiogenesis” (The Cleveland Clinic Foundation, priority 2006, dated 2011) can be followed below.

Non-standard residues stand in square brackets, D forms with d. No end group written: not given here. pY = N[C@@H](Cc1ccc(OP(=O)(O)O)cc1)C(=O)O

Experiment [1] deals with angiogenesis in VEGF-A-containing Matrigel. Kind of experiment: Matrigel plug assay, neovascularization by hemoglobin assay (Example 4). To be noted: 50 mM peptide in 500 μL Matrigel with VEGF (60 ng/mL) and heparin, subcutaneous, 7 days, C57/Bl6 mice. The class given is in vivo. As to the method:
Matrigel plug assays were performed in age- and sex-matched C57/Bl6 background mice. Each animal received an abdominal subcutaneous injection of 500 μL Matrigel mixed with VEGF (60 ng/mL), heparin (60 units/mL) and 50 mM of control ([…] G DTANNPL […]-COOH) (SEQ ID NO: 14) or beta-3 integrin cytoplasmic domain inhibitory peptide ([…] G DTANNPL Yp […]-COOH) (SEQ ID NO: 2). After 7 days, the animals were euthanized and dissected. Matrigel plugs were removed and digested using 5 mL Drabkin reagent and neovascularization was assessed using a hemoglobin assay as per the manufacturer's protocol (FIG. 16).

Experiment [2] relates to β3 integrin. As to the kind of experiment: β3 integrin tyrosine phosphorylation (Tyr-747 and 759) in HUVECs, Western blot. To be noted: adherent endothelial cells plated on vitronectin. Type of experiment: cell-based, Human. As to the method:
αvβ3 integrin is expressed on proliferating endothelial cells during angiogenesis and vascular remodeling and the blockade of αvβ3 integrin suppressed angiogenesis in several in vivo models. Therefore, we assessed whether the blockade of αvβ3 affected tyrosine phosphorylation of β3 subunit. […] Cells were also treated with non-immune IgG as control. These cells were washed and further induced with VEGF for 5 min at 37° C. Cell lysates were analyzed for phosphorylation of β3 integrin (Tyr-747 and 759). […] Basal level of β3 integrin tyrosine phosphorylation remains unaffected irrespective of different blocking antibody treatment. To further examine consequences of αvβ3 integrin blocking antibodies, cell lysates were analyzed for tyrosine phosphorylation of VEGFR-2 (Tyr-1175).
Cytoplasmic domains of integrin β subunits are highly conserved and represents region of structural homology between the various groups. […] Cell lysates were analyzed for the phosphorylation of β3 integrin. […]
Cells were lysed in immunoprecipitation lysis buffer (1% Noniodet P-40, 150 mM NaCl, 50 mM Tris-HCL (pH 7.8), 2 mM EDTA, 10 mM NaF, 10 mM Na2P2O7, 2 mM Na3VO4 10 μg/mL leupeptin, 4 μg/mL pepstatin and 0.1 U/mL aprotinin). […] Bands were analyzed by densitomeric analysis using Kodak 1D software and fold changes were indicated.
In general terms: Immunoblotting shows a protein as a band on a membrane.

The target in experiment [3] is T1, c-Src (Homo sapiens, UniProt P12931).
T1 construct: c-Src was immunoprecipitated from VEGF-stimulated HUVEC; endogenous in cells; host or cells: HUVEC (immunoprecipitate)
T1 sequence (P12931 whole entry): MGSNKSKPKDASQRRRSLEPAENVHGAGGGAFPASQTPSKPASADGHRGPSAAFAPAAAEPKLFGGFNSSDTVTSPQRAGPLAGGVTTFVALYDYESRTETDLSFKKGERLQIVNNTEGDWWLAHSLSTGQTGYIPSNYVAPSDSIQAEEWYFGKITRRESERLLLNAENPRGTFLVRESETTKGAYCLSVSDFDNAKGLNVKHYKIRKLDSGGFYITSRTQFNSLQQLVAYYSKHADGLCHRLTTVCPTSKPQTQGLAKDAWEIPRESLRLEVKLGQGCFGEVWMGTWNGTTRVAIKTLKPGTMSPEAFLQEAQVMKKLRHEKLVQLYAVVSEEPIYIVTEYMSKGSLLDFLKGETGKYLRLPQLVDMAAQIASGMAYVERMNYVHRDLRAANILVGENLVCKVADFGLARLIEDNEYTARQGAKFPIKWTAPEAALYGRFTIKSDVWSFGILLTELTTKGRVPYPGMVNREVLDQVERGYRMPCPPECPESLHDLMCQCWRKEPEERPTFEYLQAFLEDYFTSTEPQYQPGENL
Kind of experiment: In vitro kinase assay, c-Src phosphorylation of β3 integrin cytoplasmic domain or peptides. The class given is biochemical. To be noted: [γ-32P] ATP incorporation. The text has this:
Principle mechanism by which integrins appear to mediate the transfer of information from extracellular environment to intracellular milieu is through phosphorylation of β-subunit at cytoplasmic tyrosine motifs. Ligand occupancy of αvβ3 is a prerequisite for the tyrosine phosphorylation events and implying an important role for outside-in integrin signaling in this process. To examine whether c-Src can directly mediate β3 integrin tyrosine phosphorylation, c-Src was immunoprecipitated from VEGF-stimulated HUVEC. Immunocomplex were incubated with a full-length purified β3 integrin cytoplasmic domain, and [γ-^32P] ATP incorporation into was monitored. […] Recombinant purified c-Src also phosphorylated the β3 integrin whereas no phosphorylation was observed without the substrate, indicating the specificity of the reaction (lane 1 and 5). […] To further investigate whether c-Src phosphorylates Tyr-747 or Tyr-759 of β3 integrin or both residues, kinase assay were performed using peptide derived from these two distinct sites of β3 integrin as substrates (FIG. 20 E). […] In the presence of Tyr-747/Tyr-759 β3 integrin cytoplasmic peptide, a dramatic increase in [γ-^32P] ATP incorporation was observed as compared to control peptides devoid of tyrosine motifs. Similar results were observed using purified recombinant c-Src protein. As anticipated, [γ-^32P] […]

Experiment [4] deals with HUVECs. Kind of experiment: Cell adhesion assay of HUVECs on vitronectin (Example 5). Type of experiment: cell-based, Human. The procedure: Cells were washed twice with sterile PBS and re-suspended in DMEM. The cell suspensions were added to ligand-coated wells and placed in humidified incubator for 45 min. Wells were gently washed three times with DMEM and photographs were taken. The numbers of attached and spread cells per field were counted.

Experiment [5] relates to HUVECs. Kind of experiment: Cell migration assay of HUVECs on vitronectin, VEGF as agonist (Example 5). To be noted: vitronectin as substrate. Type of experiment: cell-based, Human.
Description: To assess the role of Src-mediated β3 integrin tyrosine phosphorylation in αvβ3 integrin dependent EC migration, HUVECs transfected with various forms of Src were evaluated in migration assays using VEGF as an agonist and vitronectin as a substrate. […] To further evaluate the c-Src mediated β3 integrin cytoplasmic tyrosine motifs phosphorylation in αvβ3 integrin dependent endothelial cell migration, wild type and DiYF mouse lung microvascular endothelial cells were transfected with wild type, dominant negative and catalytically active form of c-Src and stimulated with VEGF (FIG. 23 B).
Transwell tissue culture inserts were coated with αvβ3 integrin ligand vitronectin for 24 h at 4° C. Endothelial cells were transfected with various forms of c-Src or treated with inhibitors and were trypsinized; then 1×10^5 cells were added into each well. Cells were allowed to migrate for 12 h and fixed with 70% methanol for 15 min and stained with Giemsa. The non-migrated cells adhered to the top surface were removed and three random 10× fields were photographed using an inverted phase contrast microscopy.

Turning to “YGRKKRRQRRR G DTANNPL Yp KEATSTFT-COOH (YGRKKRRQRRRGDTANNPL[pY]KEATSTFT-OH; N-terminus assumed; SMILES CC(C)C[C@H](NC(=O)[C@@H]1CCCN1C(=O)[C@H](CC(N)=O)NC(=O)[C@H](CC(N)=O)NC(=O)[C@H](C)NC(=O)[C@@H](NC(=O)[C@H](CC(=O)O)NC(=O)CNC(=O)[C@H](CCCNC(=N)N)NC(=O)[C@H](CCCNC(=N)N)NC(=O)[C@H](CCCNC(=N)N)NC(=O)[C@H](CCC(N)=O)NC(=O)[C@H](CCCNC(=N)N)NC(=O)[C@H](CCCNC(=N)N)NC(=O)[C@H](CCCCN)NC(=O)[C@H](CCCCN)NC(=O)[C@H](CCCNC(=N)N)NC(=O)CNC(=O)[C@@H](N)Cc1ccc(O)cc1)[C@@H](C)O)C(=O)N[C@@H](Cc1ccc(OP(=O)(O)O)cc1)C(=O)N[C@@H](CCCCN)C(=O)N[C@@H](CCC(=O)O)C(=O)N[C@@H](C)C(=O)N[C@H](C(=O)N[C@@H](CO)C(=O)N[C@H](C(=O)N[C@@H](Cc1ccccc1)C(=O)N[C@H](C(=O)O)[C@@H](C)O)[C@@H](C)O)[C@@H](C)O; listed as Homo sapiens) [SEQ ID NO: 2]”, the “hemoglobin concentration in Matrigel plugs, fold lower compared to control peptide” value in experiment [1] is recorded as “at least 3.5 fold”.
`CN(C)S(=O)(=O)c1ccc2c(c1)C(=Cc1cc3c([nH]1)CCCC3)C(=O)N2` [SU6656, 2-oxo-3(4,5,6,7-tetrahydro-1-H-indol-2-ylmethylene)-2,3-dihydro-1H-indole-5-sulfonic acid dimethylamide]: in experiment [2], the “effect on β3 integrin tyrosine phosphorylation” value is reported as “completely blocked”. Further, in experiment [3], the “effect on phosphorylation of β3 integrin cytoplasmic domain by immunoprecipitated c-Src” value is on record as “blocked this process”. In experiment [4], the “effect on cell adhesion to vitronectin” value is “caused impairment of cell adhesion to vitronectin”. In addition, the “effect on EC migration triggered by VEGF” value in experiment [5] was “reduced EC migration triggered by VEGF”.
